Where “and” joins values, the source holds several entries; their conditions need not be identical. Identical values can stand only once.
Tested on: thromboxane analog U46619 induced PAH in minipigs
Assay: Haemodynamics (PAP, BP) in the anesthetized thromboxane challenged PAH minipig after inhaled (nebulized) application (C-2.1)
Assay type: in vivo, Göttingen minipig
Conditions: for PAP % change vs. baseline / PAP % changes vs prevalue, mean / BP % change vs. baseline: 100 μg/kg nominal dose; for PAP % change vs. baseline / BP % change vs. baseline: individual animals; for PAP % changes vs prevalue, mean: n = 3; for % changes in BP vs baseline / % changes in PAP vs baseline: inhaled 30 μg/kg
Summary of the method: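 Anesthetized, ventilated Göttingen minipigs (2-6 kg) given continuous infusion (0.3-0.75 μg/kg/min) to raise mean PAP above 25 mmHg, dosing starting after a 30 min plateau. Compound in 1% DMSO/0.2% citric acid, pH 8, nebulized via Aeroneb Pro into the inspiratory arm (~7 min; stock 300 μg/kg). PAP by Swan-Ganz catheter, BP via carotid catheter.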

SMILES: O=C(O)c1ccc(CCN(CCc2ccccc2OCc2ccc(-c3ccc(C(F)(F)F)cc3)cc2Cl)[C@H]2CCCc3nc(C(=O)O)ccc32)cc1 [comparative example 11, (5S)-5-{[2-(4-carboxyphenyl)ethyl][2-(2-{[3-chloro-4′-(trifluoromethyl)[biphenyl]-4-yl]methoxy}phenyl)ethyl]amino}-5,6,7,8-tetrahydroquinoline-2-carboxylic acid]
- PAP % change vs. baseline (inhaled, time 190 min): 77.0% and 61.7% and 68.1%
- PAP % changes vs prevalue, mean (inhaled, time 190 min): −30.5%
- BP % change vs. baseline (inhaled, time 200 min): 99.9% and 90.4% and 98.2%
- PAP % change vs. baseline (inhaled, time 200 min): 77.0% and 62.5% and 68.2%
- PAP % changes vs prevalue, mean (inhaled, time 200 min): −30.9%
- BP % change vs. baseline (inhaled, time 210 min): 98.8% and 90.4% and 97.3%
- PAP % change vs. baseline (inhaled, time 210 min): 76.5% and 62.0% and 67.9%
- PAP % changes vs prevalue, mean (inhaled, time 210 min): −30.6%
- BP % change vs. baseline (inhaled, time 220 min): 101.0% and 90.4% and 97.3%
- PAP % change vs. baseline (inhaled, time 220 min): 77.2% and 61.2% and 68.1%
- PAP % changes vs prevalue, mean (inhaled, time 220 min): −31.6%
- BP % change vs. baseline (inhaled, time 230 min): 99.9% and 90.4% and 96.3%
- PAP % change vs. baseline (inhaled, time 230 min): 76.3% and 61.2% and 67.7%
- PAP % changes vs prevalue, mean (inhaled, time 230 min): −31.2%
- BP % change vs. baseline (inhaled, time 240 min): 98.8% and 89.5% and 95.4%
- PAP % change vs. baseline (inhaled, time 240 min): 76.5% and 62.5% and 67.8%
- PAP % changes vs prevalue, mean (inhaled, time 240 min): −31.0%
- BP % change vs. baseline (inhaled, time 250 min): 98.8% and 89.5% and 95.4%
- PAP % change vs. baseline (inhaled, time 250 min): 77.6% and 63.0% and 69.1%
- BP % change vs. baseline (inhaled, time 260 min): 97.7% and 87.7% and 95.4%
- PAP % change vs. baseline (inhaled, time 260 min): 77.4% and 62.0% and 67.4%
- BP % change vs. baseline (inhaled, time 270 min): 96.6% and 86.8% and 99.2%
- PAP % change vs. baseline (inhaled, time 270 min): 77.5% and 61.5% and 67.9%
- BP % change vs. baseline (inhaled, time 280 min): 96.6% and 86.8% and 96.3%
- PAP % change vs. baseline (inhaled, time 280 min): 77.5% and 63.0% and 68.1%
- BP % change vs. baseline (inhaled, time 290 min): 97.7% and 86.8% and 94.4%
- PAP % change vs. baseline (inhaled, time 290 min): 77.3% and 62.5% and 67.8%
- BP % change vs. baseline (inhaled, time 300 min): 96.6% and 85.1% and 93.4%
- PAP % change vs. baseline (inhaled, time 300 min): 78.1% and 63.0% and 67.3%
- BP % change vs. baseline (inhaled, time 310 min): 95.5% and 83.3% and 93.4%
- PAP % change vs. baseline (inhaled, time 310 min): 76.7% and 60.5% and 68.1%
- BP % change vs. baseline (inhaled, time 320 min): 95.5% and 81.6% and 92.5%
- PAP % change vs. baseline (inhaled, time 320 min): 75.6% and 63.2% and 67.7%
- BP % change vs. baseline (inhaled, time 330 min): 95.5% and 79.8% and 92.5%
- PAP % change vs. baseline (inhaled, time 330 min): 76.5% and 63.0% and 67.6%
- duration of action compared to Ventavis (PAH minipig model, inhaled): more than 6 times
- time of maximum effect on PAP (after inhaled application (nebulization), comparative example 11 30 μg/kg, Cinaciguat 3 and 10 μg/kg, Riociguat 100 μg/kg, comparative example 3 30 μg/kg): around 60 min
- % changes in BP vs baseline (0 min vs. start inhalation): 99%
- % changes in PAP vs baseline (0 min vs. start inhalation): 100% and 99%
- % changes in BP vs baseline (10 min vs. start inhalation): 99% and 100%
- % changes in PAP vs baseline (10 min vs. start inhalation): 102% and 99%
- % changes in BP vs baseline (20 min vs. start inhalation): 96% and 98%
- % changes in PAP vs baseline (20 min vs. start inhalation): 101% and 97%
- % changes in BP vs baseline (30 min vs. start inhalation): 94% and 95%
- % changes in PAP vs baseline (30 min vs. start inhalation): 101% and 97%
- % changes in BP vs baseline (40 min vs. start inhalation): 91%
- % changes in PAP vs baseline (40 min vs. start inhalation): 100% and 97%
- % changes in BP vs baseline (50 min vs. start inhalation): 89% and 90%
- % changes in PAP vs baseline (50 min vs. start inhalation): 102% and 96%
- % changes in BP vs baseline (60 min vs. start inhalation): 86% and 88%
- % changes in PAP vs baseline (60 min vs. start inhalation): 101% and 96%
- % changes in BP vs baseline (70 min vs. start inhalation): 86% and 85%
- % changes in PAP vs baseline (70 min vs. start inhalation): 103% and 95%
- % changes in BP vs baseline (80 min vs. start inhalation): 85% and 86%
- % changes in PAP vs baseline (80 min vs. start inhalation): 101% and 94%
- % changes in BP vs baseline (90 min vs. start inhalation): 85%
- % changes in PAP vs baseline (90 min vs. start inhalation): 102% and 94%
- % changes in BP vs baseline (100 min vs. start inhalation): 85% and 84%
- % changes in PAP vs baseline (100 min vs. start inhalation): 103% and 92%
- % changes in BP vs baseline (110 min vs. start inhalation): 84%
- % changes in PAP vs baseline (110 min vs. start inhalation): 102% and 94%
- % changes in BP vs baseline (120 min vs. start inhalation): 85% and 84%
- % changes in PAP vs baseline (120 min vs. start inhalation): 101% and 92%
- % changes in BP vs baseline (130 min vs. start inhalation): 85%
- % changes in PAP vs baseline (130 min vs. start inhalation): 102% and 95%
- % changes in BP vs baseline (140 min vs. start inhalation): 85%
- % changes in PAP vs baseline (140 min vs. start inhalation): 101% and 95%
- % changes in BP vs baseline (150 min vs. start inhalation): 84%
- % changes in PAP vs baseline (150 min vs. start inhalation): 100% and 92%
- % changes in BP vs baseline (160 min vs. start inhalation): 85% and 84%
- % changes in PAP vs baseline (160 min vs. start inhalation): 100% and 91%
- % changes in BP vs baseline (170 min vs. start inhalation): 86% and 85%
- % changes in PAP vs baseline (170 min vs. start inhalation): 101% and 91%
- % changes in BP vs baseline (180 min vs. start inhalation): 86%
- % changes in PAP vs baseline (180 min vs. start inhalation): 101% and 91%
- % changes in BP vs baseline (190 min vs. start inhalation): 86% and 84%
- % changes in PAP vs baseline (190 min vs. start inhalation): 101% and 91%
- % changes in BP vs baseline (200 min vs. start inhalation): 87% and 83%
- % changes in PAP vs baseline (200 min vs. start inhalation): 101% and 90%
- % changes in BP vs baseline (210 min vs. start inhalation): 88% and 84%
- % changes in PAP vs baseline (210 min vs. start inhalation): 101% and 91%
- % changes in BP vs baseline (220 min vs. start inhalation): 87%
- % changes in PAP vs baseline (220 min vs. start inhalation): 99% and 92%
- % changes in BP vs baseline (230 min vs. start inhalation): 89% and 86%
- % changes in PAP vs baseline (230 min vs. start inhalation): 102% and 91%
- % changes in BP vs baseline (240 min vs. start inhalation): 88% and 85%
- % changes in PAP vs baseline (240 min vs. start inhalation): 99% and 92%
- % changes in BP vs baseline (−5 min vs. start inhalation): 101% and 96%
- % changes in PAP vs baseline (−5 min vs. start inhalation): 99%
- effect on systemic BP (inhaled, 30 μg/kg): did not show any decrease on systemic BP
- lung selectivity (inhaled, nominal dose of 100 μg/kg): good lung selectivity
- duration of action (inhaled, Ventavis 10 μg/kg nominal dose, comparative example 11 10, 30 and 100 μg/kg nominal dose, 240 min observation interval): ≥ 240 min

From patent US12138256B2, “Treatment of cardiopulmonary disorders” (Bayer Aktiengesellschaft, priority 2021, dated 2024)
